Measurements published in patent US20060211724A1, “Hiv integrase inhibitors” (priority 2003, published 2006).
pIC50: −log10 of the molar value.

Tests used:
[1] = target: T1, Recombinant His-tagged HIV-1 integrase (Human immunodeficiency virus type 1 group M subtype B, UniProt P12497, C1427S/F1332K); experiment: Enzymatic integrase assay (oligonucleotide-based DNA strand transfer, ELISA); assay type: biochemical
T1 construct: Recombinant His-tagged HIV-1 integrase; His; made in house; host or cells: E. coli BL21(DE3)
Procedure: Enzymatic Integrase Assay
The activity of HIV-integrase was determined using an oligonucleotide-based assay in which the DNA strand transfer by preformed complexes of integrase and processed DNA was measured by means of an enzyme-linked immunosorbent assay (ELISA) in microtiter plate format. Recombinant His-tagged HIV-1 integrase was produced in the E. coli strain BL21(DE3) from the plasmid pINSD.His.sol (available from NTH) after induction with isopropyl-β-D-thiogalactopyranoside (IPTG) according to described procedures (cfr. ref. Jenkins et al., “A soluble active mutant of HIV-1 integrase”, J. Biol. Chem. 271 ([…]), 7712-7718). HPLC-purified oligodeoxynucleotides were obtained from Proligo, and used for preparation of the viral DNA substrate and target DNA.
INb-1C is 5′-biotinylated, INT5 and INT6 are at the 3′-end labeled with FITC. INb-1C and IN-1NC correspond to the U5 end of the HIV-1 LTR. The DNA substrate for the integrase reactions was made by annealing INb-1C and IN-1NC. An equimolar mixture of INb-1C and IN-1NC was heated shortly at 95° C. in the presence of 100 mM NaCl and allowed to cool slowly to room temperature. In the same way, INT5 and INT6 were annealed to produce a target DNA molecule.
The integration strand transfer reactions were performed in the following way:
20 nM biotinylated DNA substrate INb-1C/IN-1NC was pre-incubated with 300 nM HIV-integrase at 37° C. for 5 min, to allow the cleavage reaction to occur. The candidate compounds and 50 nM target DNA INT5/INT6 were added to the reaction mix containing 20 mM Hepes pH 7.5, 25 mM NaCl, 5 mM MnCl2, 2 mM DTT, and 50 μg/ml BSA, and incubated for 2 h at 37° C. The reaction mix was transferred to streptavidin-coated plates (Exiqon), which were prewashed (three times) with 5×SSCT, and incubated for 1 h at room temperature to allow capture of the biotinylated viral DNA/target DNA complex. Plates were washed three times with 2×SSCT buffer, and anti-FITC POD-coupled antibody (Roche) was added and incubated for 1 h at room temperature to detect integrated FITC-labeled target DNA. After a final washing step with PBST (5 times), BM chemiluminescent POD-substrate (Roche) was added, and luminescence was read out.
The table below list the pIC50 values for those compounds tested in the enzymatic integrase assay. The pIC50 is expressed in Molar units and is the value according to the following formula: pIC50=−log IC50
wherein the IC50 value is the drug concentration at which 50% of the enzyme or viral activity is inhibited.

[2] = system: MT4 cells infected with HIV; experiment: Analysis of HIV integration using real-time PCR; assay type: cell-based; conditions: for 2LTR-circles (DNA copies) / Integration Alu-PCR (integrated DNA copies): DNA analyzed 16 h after infection, relative to control; for Conclusion (step of replication cycle inhibited): from Alu-PCR and 2LTR-circles
Procedure: Analysis of HIV Integration Using Real-Time PCR
Next to the detection of integrated DNA (proviral DNA), the production of 2LTR-circles formed by circularisation of unintegrated DNA was monitored. Specific inhibition of the integration of viral DNA into the genome was typically associated with accumulation of 2LTR-circles in the nucleus. MT4 cells were infected with HIV at high MOI by centrifugation for 60 min at 1200 g. After infection cells were incubated in the presence of compound in 24-well plates (10^6 c/well) for 16 h, and DNA was extracted using the QiaAmp DNA mini kit (Qiagen).
After normalization, 2LTR-circles and integrated DNA were quantified by real-time PCR using the appropriate primers and probe (cfr. reference Butler et al.). Reactions were analysed using the ABI Prism 5700 sequence detection system (Applied Biosystems).
DNA was analyzed for integration (Alu-PCR) and 2LTR-circles, 16 h after infection. DNA was also analyzed for viral cDNA synthesis, 4 h after infection.

SMILES | pIC50 [1] | 2LTR-circles (DNA copies) [2] | Integration Alu-PCR (integrated DNA copies) [2] | Conclusion (step of replication cycle inhibited) [2]
O=C1c2c(c(O)c3nccnc3c2O)C(=O)N1Cc1ccc2c(c1)OCO2 [Compound 1, 7-Benzo[1,3]dioxol-5-ylmethyl-5,9-dihydroxy-pyrrolo[3,4-g]quinoxaline-6,8-dione] | 6.21 | +++ (“+++” symbol indicates an increase in the amount of DNA copies > 5 in comparison with the control level) | − | Integrase
O=C1c2c(c(O)c3nccnc3c2O)C(=O)N1Cc1ccc(F)cc1 [Compound 2, 7-(4-Fluoro-benzyl)-5,9-dihydroxy-pyrrolo[3,4-g]quinoxaline-6,8-dione] | 6.38 | +++ (“+++” symbol indicates an increase in the amount of DNA copies > 5 in comparison with the control level) | − | Integrase
CC(C)Oc1ccc(Cc2ccccc2)cc1C(=O)CC(=O)C(=O)O [Reference compound, reference compound] |  | +++ (“+++” symbol indicates an increase in the amount of DNA copies > 5 in comparison with the control level) | − | Integrase
O=C1c2c(c(O)c3nccnc3c2O)C(=O)N1C1CCCC1 [Compound 32, 7-Cyclopentyl-5,9-dihydroxy-pyrrolo[3,4-g]quinoxaline-6,8-dione] | 4.98 |  |  | 
COc1ccc(CN2C(=O)c3c(c(O)c4nccnc4c3O)C2=O)cc1 [Compound 17, 5,9-Dihydroxy-7-(4-methoxy-benzyl)-pyrrolo[3,4-g]quinoxaline-6,8-dione] | 6.25 |  |  | 
O=C1c2c(c(O)c3nccnc3c2O)C(=O)N1CCN1CCOCC1 [Compound 28, 5,9-Dihydroxy-7-(2-morpholine-4-yl-ethyl)-pyrrolo[3,4-g]quinoxaline-6,8-dione] | 4.18 |  |  | 
Cc1ccc2c(O)c3c(c(O)c2n1)C(=O)N(Cc1cccc(F)c1)C3=O [Compound 21, 7-(3-Fluoro-benzyl)-5,9-dihydroxy-2-methyl-pyrrolo[3,4-g]quinoline-6,8-dione] | 6.06 |  |  | 
O=C1c2c(c(O)c3nccnc3c2O)C(=O)N1c1ccccc1Br [Compound 35, 7-(2-Bromo-phenyl)-5,9-dihydroxy-pyrrolo[3,4-g]quinoxaline-6,8-dione] | 5.74 |  |  | 
O=C1c2c(c(O)c3nccnc3c2O)C(=O)N1Cc1cccc(F)c1 [Compound 16, 7-(3-Fluoro-benzyl)-5,9-dihydroxy-pyrrolo[3,4-g]quinoxaline-6,8-dione] | 6.25 |  |  | 
CS(=O)(=O)c1ccc(CN2C(=O)c3c(c(O)c4nccnc4c3O)C2=O)cc1 [Compound 34, 5,9-Dihydroxy-7-(4-methanesulfonyl-benzyl)-pyrrolo[3,4-g]quinoxaline-6,8-dione] | 5.06 |  |  | 
